In patent publication US8637274B2, “Inhibitor for the formation of gamma-secretase complex” (Kowa Company, Ltd., priority 2003, dated 2014):

How the values were obtained:
Format in all cases: cell-based
[1] = tested on: cholesterol in lipid rafts of SH-SY5Y cell; test: Quantification of cholesterol content in sucrose density-gradient cell membrane fractions (lipid rafts = fraction 3); conditions: for cholesterol content in lipid rafts (fraction 3): 5% LPDS, 48 hours, FIG. 4
Procedure: (§1) SH-SY5Y cell line (Invitrogen) was subcultured in a complete medium (DMEM (Sigma) containing 10% of fetal bovine serum (Sigma), 100 units/mL of penicillin and […] of streptomycin) using a dish of 15 cm diameter at 37° C.
(§2) The SH-SY5Y cell was cultured in a dish of 15 cm diameter, and the cells reached confluent growth in the dish was washed with phosphate buffered saline (PBS). The cells were detached from the dish using cell scraper and recovered in PBS, then centrifuged at 9807 m/s^2 for 5 minutes. The precipitated cells were suspended in buffer R (20 mM Tris-HCl pH 7.6, 150 mM NaCl, 1 mM EDTA) containing 200 μL of a mixture of 2% CHAPSO and proteases (Complete protease mixture) (Roche). Solubilization of the cell was performed by means of leaving the cell suspension for standing on an ice bath for 20 minutes. After solubilizing, 800 μL of the buffer R containing 56.25% sucrose was added to make the final concentration to be 45% sucrose and 0.4% CHAPSO, and placed in the bottom of centrifuging tube. Further, 3 mL of the buffer R containing 35% sucrose and 1 mL of the buffer R containing 5% sucrose were overlaid sequentially on top of the layers. After centrifugation at 980700 m/s^2 (32000 rpm) for 16 hours at 4° C. using Beckman ultracentrifuge equipped with SW55 rotor, each 500 μL aliquot was withdrawn from top as fractions.
(§3) The SH-SY5Y cell was cultured in a dish of 15 cm diameter, and the cells reached confluent growth in the dish were washed with PBS. After that, methyl-β-cyclodextrin (Sigma) dissolved in DMEM to make the final concentration to be 0 to 2 mM was added to the dish, and cultured at 37° C. for another 30 minutes. These cells were processed and fractionated according to the method described in the Reference Example 2, and subjected to the immunoblotting.
The SH-SY5Y cell was cultured in a dish of 15 cm diameter and the cells of just before arriving confluent growth in a dish were washed with PBS. […]

[2] = tested on: active complex of γ-secretase (nicastrin, presenilin-1, presenilin-2, Pen-2) in lipid rafts of SH-SY5Y cell; test: Immunoblotting of γ-secretase constituents in sucrose density-gradient cell membrane fractions; conditions: for constituents of γ-secretase (nicastrin, presenilin-1, presenilin-2) in lipid rafts fraction (fraction 3): FIG. 3A-3C
Procedure: as §1, §2
(§4) After SDS-polyacrylamide gel electrophoresis was carried out for each fraction obtained in the Reference Example 2, immunoblotting was performed. The antibodies used were nicastrin N-19 (Santa Cruz) as a nicastrin recognizing antibody, anti-G1L3 as an antibody recognizing C-terminal region of presenilin 1, anti-G2L as an antibody recognizing C-terminal region of presenilin 2, anti-PNT3 as a PEN-2 recognizing antibody, Flotillin-1 (BD Sciences) as a flotillin-1 recognizing antibody, and Calnexin (BD Biosciences) as a calnexin recognizing antibody.
After reacting at room temperature for 1 hour or at 4° C. overnight, the gels were washed twice with TBS-Tween (20 mM Tris-buffered saline, pH 7.4, 0.05% Tween 20). Then, the gels were reacted with HRP-conjugated anti mouse IgG antibody, anti goat IgG antibody, or anti rabbit IgG antibody each for 1 hour, and washed with TBS-Tween. And then, an X-ray film was exposed to the chemiluminescence generated using SuperSignal West Dura (Pierce).
as §3
The SH-SY5Y cell was cultured in a dish of 15 cm diameter and the cells of just before arriving confluent growth in a dish were washed with PBS. After that, the cells were cultured in DMEM containing 5% of LPDS, 250 μM of mevalonic acid and 50 μM of compactin or 5 μM of pitavastatin as a cholesterol synthesis inhibitor for 48 hours. These cells were processed and fractionated according to the method described in the Reference Example 2, and subjected to the immunoblotting.

[3] = tested on: flotillin-1 (marker protein of lipid rafts), SH-SY5Y cell; test: Immunoblotting of lipid raft marker flotillin-1 in sucrose density-gradient cell membrane fractions; conditions: for flotillin in the lipid rafts fraction (structure of lipid rafts): 48 hours, FIG. 3D
Procedure: as §1, §2, §4
After reacting at room temperature for 1 hour or at 4° C. overnight, the gels were washed twice with TBS-Tween (20 mM Tris-buffered saline, pH 7.4, 0.05% Tween 20). […]

[4] = 50 μM compactin plus 250 μM mevalonic acid
[5] = 50 μM compactin plus 250 μM mevalonic acid, 48 hours
[6] = 5 μM pitavastatin plus 250 μM mevalonic acid
[7] = 5 μM pitavastatin plus 250 μM mevalonic acid, 48 hours

**Q.** `CC[C@H](C)C(=O)O[C@H]1CCC=C2C=C[C@H](C)[C@H](CC[C@@H]3C[C@@H](O)CC(=O)O3)[C@H]21` [compactin, (+)-(1S,3R,7S,8S.8aR)-1,2,3,7,8,8a-hexahydro-7-methyl-8-[2-[(2R,4R)-tetrahydro-4-hydroxy-6-oxo-2H-pyran-2-yl]ethyl]-1-naphthyl (S)-2-methylbutyrate] was tested. Which “cholesterol content in lipid rafts (fraction 3)” value [1, 4] did it give?
**A.** decreased

**Q.** What about the “formation of an active complex of γ-secretase in lipid rafts” value (“formation” below) [2, 5] of the same compound?
**A.** inhibited the formation of an active complex of γ-secretase in lipid rafts

**Q.** And the “constituents of γ-secretase (nicastrin, presenilin-1, presenilin-2) in lipid rafts fraction (fraction 3)” value [2, 5]?
**A.** disappeared from lipid rafts fraction

**Q.** And the “flotillin in the lipid rafts fraction (structure of lipid rafts)” value [3, 4]?
**A.** still remained in the lipid rafts fraction

**Q.** For `O=C(O)C[C@H](O)C[C@H](O)/C=C/c1c(C2CC2)nc2ccccc2c1-c1ccc(F)cc1` [pitavastatin, (3R,5S,6E)-7-[2-cyclopropyl-4-(4-fluorophenyl)-3-quinolyl]-3,5-dihydroxy-6-heptenoic acid], which “cholesterol content in lipid rafts (fraction 3)” value [1, 6] is on record?
**A.** decreased

**Q.** And the “formation” value [2, 7]?
**A.** inhibited the formation of an active complex of γ-secretase in lipid rafts

**Q.** What about the “constituents of γ-secretase (nicastrin, presenilin-1, presenilin-2) in lipid rafts fraction (fraction 3)” value [2, 7] of the same compound?
**A.** disappeared from lipid rafts fraction

**Q.** And the “flotillin in the lipid rafts fraction (structure of lipid rafts)” value [3, 6]?
**A.** still remained in the lipid rafts fraction

**Q.** methyl-β-cyclodextrin was tested. Which “cholesterol in lipid rafts (fraction 3)” value ([1]; methyl-β-cyclodextrin 0 to 2 mM, 30 minutes, 37° C., FIG. 2) did it give?
**A.** removed from lipid rafts

**Q.** What about the “formation” value ([2]; methyl-β-cyclodextrin 0 to 2 mM, 30 minutes) of the same compound?
**A.** inhibited the formation of an active complex of γ-secretase in lipid rafts

**Q.** What about the “constituents of γ-secretase (nicastrin, presenilin-1, presenilin-2, Pen-2) in lipid rafts fraction (fraction 3)” value ([2]; methyl-β-cyclodextrin 0 to 2 mM, 30 minutes, FIG. 1A-1D) of the same compound?
**A.** disappeared from lipid rafts fraction

**Q.** And the “distribution of flotillin (marker protein of lipid rafts) among fractions / raft structure” value ([3]; methyl-β-cyclodextrin 0 to 2 mM, 30 minutes, FIG. 1E)?
**A.** moved from the original position of the lipid rafts of fraction 3 to fraction 9 and 10
